From PMC5317004 (Scientific Reports, 2017)

Legend:
chimeric α7-GluClβR [1] = target: chimeric α7-GluClβR (Gallus gallus / Caenorhabditis elegans, UniProt P22770, M226I/T225I); experiment: ACh dose-response, whole-cell patch clamp in CHO cells expressing the chimeric receptor; format: cell-based, chick nAChR α7 / C. elegans GluClβ; conditions: −60 mV
chimeric α7-GluClβR [2] = experiment: IVM added after activation by ACh: kinetics and extent of current decline (whole-cell patch clamp); format: cell-based, chick nAChR α7 / C. elegans GluClβ
Experimental: Following a further wash (for a minute), the same cell was challenged again with a 5-μM-IVM solution (in 0.01% DMSO; red bar, arrow and trace). Recordings were performed at −60 mV. (B) Time constant of current decline (τd). Values of τd were determined by exponential fits to the declining phase of the currents using Eq. 3. […] Error bars correspond to SEM of N = 6 and N = 5 cells for recordings at −60 mV and −20 mV, respectively. Paired, two-tailed Student’s t-tests indicate that for not significant (“ns”) P > 0.3, and ** 0.001 < P < 0.005.
Figure 8 The inhibition of ACh-elicited currents by addition of IVM is irreversible. […] (B) Representative currents for the same experiment as in A, but with the exception of IVM (0.5 μM) addition after the ACh-elicited current reached to its peak (IP1). Inset, magnification of the indicated segment of the current trace. In both panels A and B, black bars above the current traces indicate ACh or IVM applications. […] Error bars correspond to SEM. Unpaired, two-tailed Student’s t-tests indicate *** P < 0.0001.
The declining phase of the currents was fitted with an exponential time course to give the time constant of current decline by using equation 3, […]
I is the current, IP is the peak of the current, IS is the steady state current, t is the time, and τ is the time constant of current decline. […]
Supplementary Materials and Methods
The structural mo del of the chi meric α7-GluClβR was built based on th e methodologies published previously1,2, and the sequence of the chimeric subunit is presented in […]
DNA construct and preparation of cells for electrophysiological experiments The cDNA encoding the α7-GluClβ chimeric subunit was generated as described previously3, and was cloned into a pcDNA3.1 vector.
Chinese hamster ovary cells (CHO-K1, ATCC via Biological Industries Israel, Beit Haemek Ltd.) were cultured as performed previously2 in Dulbecco 's Modified E agle Med iu m (DMEM) containing 10% fetal calf serum (Biological Industries Israel Beit Haemek Ltd.), 2 mM glutamax, 100 Units/ml penicillin G and 100 μg/ml streptomycin, and grown in 5% CO2 at 37°C under 90-95% hu midity . CHO cells were seeded on glass coverslips (13-mm diameter) placed in a 24-multiwell plate. For the expression of the α7-GluClβR, cells were transiently transfected with the pcDNA3.1 plasmid containing the receptor’s ORF (200-600 ng per well) using transit-LT1 transfection reagent (Mirus, USA), according to the manufacturer’s protocol. pIRES-CD8 plas mid (200 ng per well) was also added to enable visualization of the ex pressing cells by beads coated with anti-CD8 antibodies (Invitrogen). For the expression of GluClβ ho mo mers, we used the pcDNA3.1 plas mid containing the GluClβ-subunit ORF (600-1000 ng per well), pIRES-CD8 plas mid (200 ng per well) and th e X-tremeGENE HP DNA Transfection Reagent (Roche Life Science). Recordings were performed 48-72 hours following transfection.
Whole-cell patch clamp recordings
Recordings were performed in the aforementioned CHO cells, as previously described1,2. Whole-cell patch clamp experiments were performed with normal external solution (NES) contained (in millimolar): 140 NaCl, 2.8 KCl, 2 CaCl2, 2 MgCl2, 10 glucose and 10 HEPES, adjusted to pH 7.35 with NaOH (310 mOsM). The pipette solution contained […]
(in millimolar): 130 KCl, 4 MgCl2, 4 Na2ATP, 1 EGTA and 10 HEPES, adjusted to pH 7.35 with KOH (290 mOsM). The osmolarity of these solutions was maintained by adding sucrose.
The electrode resistance was 6-10 MΩ when filled with the pipette solution. External solutions were applied onto the cell by using the VC-77SP fast-step system (Warner Instruments, CT, USA) combined with N2 pressure of 3-4 psi to produce laminar flow of the external solution onto the patched cell. All measurements were performed at 25 °C. The currents w ere measured with an Axopatch 200B patch-clamp amplifier (Molecular Devices, Sunnyvale, CA) and a Digidata 1440A interface (Molecular Devices). […]

homomeric GluClβR [3] = test system: T1, homomeric GluClβR; experiment: Effect of IVM on Glu-elicited currents of homomeric GluClβ receptors in CHO cells (whole-cell patch clamp); format: cell-based, C. elegans; conditions: 100 mM Glu, four cells, mean ± SEM
T1 construct: homomeric receptors assembled from the full-length C. elegans GluClβ subunit; expressed in transfected cells; host or cells: CHO-K1 cells, transient transfection, pcDNA3.1
Experimental: Figure 9 Effect of IVM on homomeric GluClβ receptors. (A) Representative current traces obtained by the indicated application protocol. Glu (100 mM) was applied for either 350 ms to obtain peak IP0 at −60 mV, or 600 ms to obtain peaks IP1, IP2 and IP3 at +60 mV. Note that the responses at both membrane voltages, −60 and +60 mV, start to desensitize appreciably before the end of Glu application. IVM (2 μM) was applied for 10 seconds. Asterisk indicates a 25-sec-long wash between the second and third Glu applications. (B) Current-voltage (I/V) relations obtained in a different cell than in A upon the application of Glu (100 mM) over a voltage ramp lasting 200 ms. […] Current ratios were extracted from experiments performed as shown in (A). Mean ± SEM of four cells are presented. Paired, two-tailed Student’s t-tests indicate that **0.001 < P < 0.01 and ***P < 0.0002.
Supplementary Information
Trapping of ivermectin by a pentameric ligand-gated ion channel upon open-to-cl ose d i someri zati on N. Degani-Katzav, M. Klein, M. Har-Even, R. Gortler, R. Tobi and Y. Paas*
Supplementary Materials and Methods […]
The electrode resistance was 6-10 MΩ when filled with the pipette solution. […] The currents w ere measured with an Axopatch 200B patch-clamp amplifier (Molecular Devices, Sunnyvale, CA) and a Digidata 1440A interface (Molecular Devices). […]

homomeric GluClβR [4] = test system: homomeric GluClβR; parameters: method as in PMID 7935817; conditions: Xenopus oocytes; read-out: Glu EC50; cited from earlier work

Chain of chimeric α7-GluClβR (Gallus gallus / Caenorhabditis elegans, UniProt P22770, M226I/T225I) (P22770 24-230 T225I/M226I): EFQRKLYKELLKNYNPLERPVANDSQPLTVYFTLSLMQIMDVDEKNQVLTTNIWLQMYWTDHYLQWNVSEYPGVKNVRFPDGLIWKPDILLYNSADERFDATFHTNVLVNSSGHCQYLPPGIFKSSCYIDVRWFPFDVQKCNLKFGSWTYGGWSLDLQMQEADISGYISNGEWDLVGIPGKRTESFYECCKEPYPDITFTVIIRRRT
Chain of chimeric α7-GluClβR (Gallus gallus / Caenorhabditis elegans, UniProt P22770, M226I/T225I) (Q17328 245-434, further chain): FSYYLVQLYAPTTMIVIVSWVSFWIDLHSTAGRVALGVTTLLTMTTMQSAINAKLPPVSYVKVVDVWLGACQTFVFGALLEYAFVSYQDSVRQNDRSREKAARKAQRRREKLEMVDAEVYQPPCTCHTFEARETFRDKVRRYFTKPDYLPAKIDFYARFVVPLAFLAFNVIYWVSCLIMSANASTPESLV

| SMILES | Hill coefficient (ACh dose-response) (chimeric α7-GluClβR [1]) | current remaining at end of initial application, percent IS/IP1 (chimeric α7-GluClβR [2]; 30 μM ACh alone for 9.6 sec, N = 10) | τd1, time constant of current decline (chimeric α7-GluClβR [2]; 30 μM ACh alone, 9.6 sec, N = 10) | current remaining at end of application, percent of the peak amplitude (chimeric α7-GluClβR [2]; 350 μM ACh alone for 5.5 sec, N = 5) | time between the start of application and the onset of effect (chimeric α7-GluClβR [2]; six experiments as in Fig. 5A, 350 μM ACh, 5 μM IVM) | I+60mV/I−60mV of Glu-elicited responses (homomeric GluClβR [3]) | EC50 (homomeric GluClβR [4]) |
| --- | --- | --- | --- | --- | --- | --- | --- |
| CC(=O)OCC[N+](C)(C)C [ACh, acetylcholine] | 2.55 ± 0.3 | 35 ± 4% | 4268 ± 224 ms | 31 ± 8.6% | 67 ± 7 milliseconds |  |  |
| N[C@@H](CCC(=O)O)C(=O)O [Glu, glutamate] |  |  |  |  |  | 2.8 ± 0.2 | 380 µM |
